Test in all cases: inhibition of tumour cell growth, NCI panel, 48 h
The test system of test [1] is CAKI-1 renal.
For test [2], the system named is COLO 205 colon.
Test [3] deals with DU-145 prostate.
Test [4] relates to HCC-2998 colon.
The test system of test [5] is HS 578T breast.
Test [6] has as its system IGROV1 ovarian.
Test [7] concerns M14 melanoma.
Test [8] has as its system OVCAR-8 ovarian.
Test [9] deals with RXF 393 renal.
Test [10] concerns SF-539 CNS.
In test [11] the test system is SK-MEL-28 melanoma.
Test [12] has as its system SK-MEL-5 melanoma.
In test [13] the test system is SK-OV-3 ovarian.
The subject of test [14] is SR leukemia.
Test [15] has as its system T-47D breast.
The subject of test [16] is TK-10 renal.
For test [17], the system named is UACC-257 melanoma.
Test [18] deals with UACC-62 melanoma.
Test [19] has as its system MALME-3M melanoma.

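In this assay, cells in 96-well plates receive the compound at five concentrations for 48 hours. Endpoints are linearly interpolated between the surrounding concentrations. TGI is the concentration that stops growth completely.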

The results in this text go back to PubChem BioAssay (NCI).

For `Cc1c(C(=O)c2ccccc2)[n+](=O)c2cc(Cl)c(Cl)cc2n1[O-]`, the TGI in test [1] was 14.1 µM; in test [2], 33.5 µM; in test [3], 31.5 µM; in test [4], 2.9 µM; in test [5] it was 31.2 µM; in [6] it was 5.16 µM. The TGI in test [7] stood at 7.7 µM; in [8], 23.2 µM; in test [9], 19.2 µM; in test [10], 32.5 µM; in test [11] it was 29.1 µM; in test [12] it was 28.6 µM. For the same molecule, the TGI in test [13] turned out to be 41.4 µM; in [14], 3.32 µM; in test [15], 14 µM; in test [16], 23.9 µM; in test [17], 16.5 µM; in test [18], 25.1 µM.
Regarding `N=c1oc2ccccc2cc1C(=O)Nc1cccc2ccccc12`, the TGI in test [1], in test [2], in [3], in [4], in test [5] and in [6] was above 100 µM throughout. Also, the TGI in [7], in test [19], in test [8], in test [9], in test [10] and in test [11] was above 100 µM throughout. The TGI in test [12], in test [13], in test [14], in test [15], in test [17] and in [18] was above 100 µM in each case.
Turning to `COC(=O)[C@@H]1C[C@@H](O)CN1C(=O)c1ccc([N+](=O)[O-])cc1[N+](=O)[O-]`, the TGI in test [1], in [2], in [3], in test [4], in test [5] and in test [6] was above 100 µM each time. The TGI in test [7], in test [8], in test [9], in [10], in test [11] and in [12] was above 100 µM in each case. Besides, the TGI in [13], in [14], in test [15], in test [16], in [17] and in [18] was above 100 µM throughout.
In the case of `CSC1=NN(C(C)=O)C(C(OC(C)=O)C(OC(C)=O)C(OC(C)=O)C(COC(C)=O)OC(C)=O)S1` (stereo not drawn), the TGI in test [1], in test [2], in test [3], in [4], in [5] and in [6] was above 100 µM throughout. The TGI in test [7], in test [19], in test [8], in [9], in test [10] and in test [11] was above 100 µM throughout. Moreover, the TGI in test [12], in test [13], in test [14], in test [15], in test [16] and in test [17] was above 100 µM each time. In test [18], this molecule returned a TGI above 100 µM.
For `CC1(c2ccccc2)O[C@@H]2C[C@H]3[C@@H]4CCC5=CC(=O)C=C[C@]5(C)[C@@]4(F)[C@@H](O)C[C@]3(C)[C@]2(C(=O)CO)O1` (stereo partly drawn), the TGI in test [1] stood at 56 µM; in [2] it was 27.8 µM; in test [3], 35 µM; in test [4], 33.3 µM; in [5] it was 45.4 µM; in [6] it was 38.7 µM. Besides, the TGI was 30.6 µM in test [7]; 27.5 µM in test [19]; 41.7 µM in [8]; 36.3 µM in [9]; 30.8 µM in test [11]; 28.2 µM in [12]. Besides, the TGI is 76.9 µM in test [14]; 41 µM in test [15]; 41.6 µM in test [16]; 33.1 µM in test [17]; 35.6 µM in test [18].
With `C=C(C)C1CC[C@@](C)(O)[C@H](C#N)C1` (stereo partly drawn), the TGI in test [1], in test [2], in test [3], in [4], in test [5] and in test [7] was above 100 µM throughout. Also, the TGI in test [19], in [8], in test [9], in test [10], in test [11] and in [12] was above 100 µM each time. For the same molecule, the TGI in test [13], in test [14], in test [15], in [16], in test [17] and in [18] was above 100 µM throughout.
For `O=C1CSC(c2ccccc2O)N1c1ccc2c(c1)Oc1c(Cl)c3c(c(Cl)c1=N2)Oc1cc(N2C(=O)CSC2c2ccccc2O)ccc1N=3` (stereo not drawn), the TGI in test [1], in [3], in [4], in [5], in test [6] and in test [7] was above 100 µM each time. Further, the TGI in [8] is above 100 µM; in test [9], 44.5 µM; in [10], above 100 µM; in test [11], above 100 µM; in test [12] it was above 100 µM; in [13], 71.3 µM. The TGI in [14], in [15], in [16] and in [17] was above 100 µM in each case.
For `O[C@@]1(C#Cc2ccc3c(c2)OCO3)CCC[C@H]1NCc1ccccc1`, the TGI is above 100 µM in test [1]; 37.4 µM in test [2]; above 100 µM in test [3]; 32.2 µM in test [4]; 50.8 µM in [5]; 46.9 µM in test [6]. The TGI came to 29.2 µM in test [7]; 29.6 µM in test [19]; 59 µM in test [8]; 86.2 µM in [9]; 39.5 µM in test [10]; 38.1 µM in test [11]. The TGI in [12] was 36.2 µM; in [13], above 100 µM; in test [14], 50.7 µM; in test [15], 41.2 µM; in [16], 70.6 µM; in test [17], 63.9 µM. For the same molecule, the TGI in test [18] stood at 36.4 µM.
